What was measured:
Nannochloropsis sp. = experiment: Growth inhibition of Nannochloropsis by herbicide in growth media; type: cell-based
AHAS = conditions: previously reported, several organisms; cited from earlier work

## COC(=O)c1ccccc1S(=O)(=O)NC(=O)Nc1nc(C)nc(OC)n1 [metsulfuron methyl]
Nannochloropsis sp.
  growth of Nannochloropsis sp.: strongly inhibited
Nannochloropsis sp.; wild-type
  concentration that could be used to effectively suppress wild-type growth: 30 µM
AHAS
  inhibitor of AHAS activity: potent inhibitor
